Eleven molecules from PubChem BioAssay (NCI) can be followed below.

Molecules are shown by their SMILES.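 Compound exposure: 48 hours, 5 concentrations, 96-well plates. At the GI50, growth is halved. TGI: concentration producing complete growth inhibition.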

For the first experiment, the system named is 786-0 renal. Nature of the experiment: growth of human tumour cells (NCI), 48 h.
`CSc1nc(NC2OCC(OC(C)=O)C(OC(C)=O)C2OC(C)=O)c(N=CC=Nc2c(NC3OCC(OC(C)=O)C(OC(C)=O)C3OC(C)=O)nc(SC)[nH]c2=O)c(=O)[nH]1` (stereo not drawn) returned a TGI of over 100 µM.
On the same count and under the same terms, the result for `CCCCCCN(CCCCCC)C(=O)Cc1c2n(c3ccccc13)Cc1ccccc1-2` reads over 100 µM; that for `Brc1ccccc1C1SCc2nc3ccccc3n21` (stereo not drawn), 29.4 µM; that for `CC1=CC(O)(c2ccc(-c3ccccc3Cl)cc2)OC1=O` (stereo not drawn), over 100 µM.
Still for that read-out and setting: the result for `O=S1(=O)OCCOS(=O)(=O)C1Br` reads over 100 µM.
Take `Nc1ncnc2n[nH]c(Nc3ccc(F)cc3)c12`: the GI50 was 19.3 µM and the TGI was over 100 µM.
`CCOC(=O)c1cc2nc3ccccc3c(=O)n2c2ccccc12` returned a TGI of over 10 µM.
The same measure, in the same setting: next, `Cc1cc(O)c(/C=N/C(=S)NCc2ccccc2)c(=O)o1`: over 100 µM.
As to `Cc1cc(I)cc(CN(C)CCCN2CCCCC2)c1O`, the GI50 is 13.7 µM and the TGI came out at 26.5 µM.
Turning to `COc1cccc(-c2nc(-c3ccc(NC(=O)C(C)C)cc3)[nH]c2-c2ccnc(Br)c2)c1`, the GI50 was 1.3 µM and the TGI was over 100 µM.
For the molecule `O=C(CSc1ccc(Cl)cc1)Nc1ccc(-c2nc3ccccc3s2)c(Cl)c1`, the GI50 was 3.94 µM and the TGI came out at 24.7 µM.

A further experiment deals with CCRF-CEM leukemia. The experiment in a line: growth of human tumour cells (NCI), 48 h.
For the molecule `CSc1nc(NC2OCC(OC(C)=O)C(OC(C)=O)C2OC(C)=O)c(N=CC=Nc2c(NC3OCC(OC(C)=O)C(OC(C)=O)C3OC(C)=O)nc(SC)[nH]c2=O)c(=O)[nH]1` (stereo not drawn), the TGI was over 100 µM.
Still for that read-out and setting: the result for `CCCCCCN(CCCCCC)C(=O)Cc1c2n(c3ccccc13)Cc1ccccc1-2` reads 90.1 µM; that for `Brc1ccccc1C1SCc2nc3ccccc3n21` (stereo not drawn), over 100 µM; that for `CC1=CC(O)(c2ccc(-c3ccccc3Cl)cc2)OC1=O` (stereo not drawn), over 100 µM.
Still for that read-out and setting: next, `O=S1(=O)OCCOS(=O)(=O)C1Br`: over 100 µM.
In the case of `Nc1ncnc2n[nH]c(Nc3ccc(F)cc3)c12`, the GI50 was 18.4 µM and the TGI was 72.4 µM.
Molecule `CCOC(=O)c1cc2nc3ccccc3c(=O)n2c2ccccc12` came in with a TGI of over 10 µM.
The molecule `Cc1cc(O)c(/C=N/C(=S)NCc2ccccc2)c(=O)o1` had a TGI of over 100 µM.
`Cc1cc(I)cc(CN(C)CCCN2CCCCC2)c1O`: the GI50 is 18.6 µM and the TGI is 43.4 µM.
On to `COc1cccc(-c2nc(-c3ccc(NC(=O)C(C)C)cc3)[nH]c2-c2ccnc(Br)c2)c1`, for which the GI50 was 2.99 µM and the TGI is over 100 µM.
Take `O=C(CSc1ccc(Cl)cc1)Nc1ccc(-c2nc3ccccc3s2)c(Cl)c1`: the GI50 was 3.58 µM and the TGI is over 100 µM.

Another experiment concerns DMS 114 small cell lung. Nature of the experiment: growth of human tumour cells (NCI), 48 h.
Consider `CSc1nc(NC2OCC(OC(C)=O)C(OC(C)=O)C2OC(C)=O)c(N=CC=Nc2c(NC3OCC(OC(C)=O)C(OC(C)=O)C3OC(C)=O)nc(SC)[nH]c2=O)c(=O)[nH]1` (stereo not drawn), for which the TGI was over 100 µM.
On the same count and under the same terms, the result for `CCCCCCN(CCCCCC)C(=O)Cc1c2n(c3ccccc13)Cc1ccccc1-2` reads 82 µM; that for `Brc1ccccc1C1SCc2nc3ccccc3n21` (stereo not drawn), 94.4 µM; that for `CC1=CC(O)(c2ccc(-c3ccccc3Cl)cc2)OC1=O` (stereo not drawn), over 100 µM.
Still for that read-out and setting: next, `O=S1(=O)OCCOS(=O)(=O)C1Br`: over 100 µM.

In the next experiment the test system is HS 578T breast. The experiment in a line: growth of human tumour cells (NCI), 48 h.
`CSc1nc(NC2OCC(OC(C)=O)C(OC(C)=O)C2OC(C)=O)c(N=CC=Nc2c(NC3OCC(OC(C)=O)C(OC(C)=O)C3OC(C)=O)nc(SC)[nH]c2=O)c(=O)[nH]1` (stereo not drawn) came in with a TGI of over 100 µM.
`Nc1ncnc2n[nH]c(Nc3ccc(F)cc3)c12`: the GI50 was 20.6 µM and the TGI was over 100 µM.
As to `CCOC(=O)c1cc2nc3ccccc3c(=O)n2c2ccccc12`, the TGI was over 10 µM.
The molecule `Cc1cc(O)c(/C=N/C(=S)NCc2ccccc2)c(=O)o1` yielded a TGI of over 100 µM.
For `Cc1cc(I)cc(CN(C)CCCN2CCCCC2)c1O`, the GI50 is 9.75 µM and the TGI came to 75.6 µM.
On to `COc1cccc(-c2nc(-c3ccc(NC(=O)C(C)C)cc3)[nH]c2-c2ccnc(Br)c2)c1`, for which the GI50 is 0.548 µM and the TGI was 3.93 µM.
With `O=C(CSc1ccc(Cl)cc1)Nc1ccc(-c2nc3ccccc3s2)c(Cl)c1`, the GI50 was 2.56 µM and the TGI was 7.99 µM.

In the next experiment the test system is IGROV1 ovarian. The experiment in a line: growth of human tumour cells (NCI), 48 h.
Molecule `CSc1nc(NC2OCC(OC(C)=O)C(OC(C)=O)C2OC(C)=O)c(N=CC=Nc2c(NC3OCC(OC(C)=O)C(OC(C)=O)C3OC(C)=O)nc(SC)[nH]c2=O)c(=O)[nH]1` (stereo not drawn) registered a TGI of over 100 µM.
Still for that read-out and setting: the result for `Brc1ccccc1C1SCc2nc3ccccc3n21` (stereo not drawn) reads 70.6 µM.
Take `CC1=CC(O)(c2ccc(-c3ccccc3Cl)cc2)OC1=O` (stereo not drawn): the TGI is over 100 µM.
`O=S1(=O)OCCOS(=O)(=O)C1Br` gave a TGI of over 100 µM.
On to `Nc1ncnc2n[nH]c(Nc3ccc(F)cc3)c12`, for which the GI50 was 4.73 µM and the TGI amounted to 32.1 µM.
As to `CCOC(=O)c1cc2nc3ccccc3c(=O)n2c2ccccc12`, the TGI was over 10 µM.
The same measure, in the same setting: the result for `Cc1cc(O)c(/C=N/C(=S)NCc2ccccc2)c(=O)o1` reads over 100 µM.
`Cc1cc(I)cc(CN(C)CCCN2CCCCC2)c1O`: the GI50 was 15.4 µM and the TGI is 32.5 µM.
The like results for `COc1cccc(-c2nc(-c3ccc(NC(=O)C(C)C)cc3)[nH]c2-c2ccnc(Br)c2)c1` were, in that order, 3.55 µM and over 100 µM.
The like results for `O=C(CSc1ccc(Cl)cc1)Nc1ccc(-c2nc3ccccc3s2)c(Cl)c1` were, in that order, 0.744 µM and 75.8 µM.

A further experiment concerns MDA-MB-231 breast. The experiment in a line: growth of human tumour cells (NCI), 48 h.
Molecule `CSc1nc(NC2OCC(OC(C)=O)C(OC(C)=O)C2OC(C)=O)c(N=CC=Nc2c(NC3OCC(OC(C)=O)C(OC(C)=O)C3OC(C)=O)nc(SC)[nH]c2=O)c(=O)[nH]1` (stereo not drawn) registered a TGI of over 100 µM.
Turning to `Nc1ncnc2n[nH]c(Nc3ccc(F)cc3)c12`, the GI50 is 21.5 µM and the TGI is 81.2 µM.
As to `CCOC(=O)c1cc2nc3ccccc3c(=O)n2c2ccccc12`, the TGI is over 10 µM.
`Cc1cc(O)c(/C=N/C(=S)NCc2ccccc2)c(=O)o1` displayed a TGI of over 100 µM.
As for `Cc1cc(I)cc(CN(C)CCCN2CCCCC2)c1O`, the GI50 is 18.4 µM and the TGI was 48.6 µM.
With `COc1cccc(-c2nc(-c3ccc(NC(=O)C(C)C)cc3)[nH]c2-c2ccnc(Br)c2)c1`, the GI50 was 4.09 µM and the TGI was over 100 µM.
Turning to `O=C(CSc1ccc(Cl)cc1)Nc1ccc(-c2nc3ccccc3s2)c(Cl)c1`, the GI50 is 8.34 µM and the TGI was determined as 23.6 µM.

The test system of the next experiment is OVCAR-5 ovarian. Nature of the experiment: growth of human tumour cells (NCI), 48 h.
Consider `CSc1nc(NC2OCC(OC(C)=O)C(OC(C)=O)C2OC(C)=O)c(N=CC=Nc2c(NC3OCC(OC(C)=O)C(OC(C)=O)C3OC(C)=O)nc(SC)[nH]c2=O)c(=O)[nH]1` (stereo not drawn), for which the TGI is over 100 µM.
`Brc1ccccc1C1SCc2nc3ccccc3n21` (stereo not drawn) displayed a TGI of 68 µM.
In the case of `CC1=CC(O)(c2ccc(-c3ccccc3Cl)cc2)OC1=O` (stereo not drawn), the TGI was over 100 µM.
Turning to `Nc1ncnc2n[nH]c(Nc3ccc(F)cc3)c12`, the GI50 was 60 µM and the TGI is over 100 µM.
For `CCOC(=O)c1cc2nc3ccccc3c(=O)n2c2ccccc12`, the TGI is over 10 µM.
In the case of `Cc1cc(O)c(/C=N/C(=S)NCc2ccccc2)c(=O)o1`, the TGI was over 100 µM.
For the molecule `Cc1cc(I)cc(CN(C)CCCN2CCCCC2)c1O`, the GI50 is 21 µM and the TGI is 59.4 µM.
The like results for `COc1cccc(-c2nc(-c3ccc(NC(=O)C(C)C)cc3)[nH]c2-c2ccnc(Br)c2)c1` were, in that order, 4.69 µM and over 100 µM.
The like results for `O=C(CSc1ccc(Cl)cc1)Nc1ccc(-c2nc3ccccc3s2)c(Cl)c1` were, in that order, 11.6 µM and 55.4 µM.

A further experiment has as its system PC-3 prostate. The experiment in a line: growth of human tumour cells (NCI), 48 h.
Regarding `Nc1ncnc2n[nH]c(Nc3ccc(F)cc3)c12`, the GI50 is 20.8 µM and the TGI is over 100 µM.
`CCOC(=O)c1cc2nc3ccccc3c(=O)n2c2ccccc12` showed a TGI of over 10 µM.
`Cc1cc(O)c(/C=N/C(=S)NCc2ccccc2)c(=O)o1` gave a TGI of over 100 µM.
As for `Cc1cc(I)cc(CN(C)CCCN2CCCCC2)c1O`, the GI50 is 15.4 µM and the TGI turned out to be 32.9 µM.
In the case of `COc1cccc(-c2nc(-c3ccc(NC(=O)C(C)C)cc3)[nH]c2-c2ccnc(Br)c2)c1`, the GI50 was 3.02 µM and the TGI is over 100 µM.
With `O=C(CSc1ccc(Cl)cc1)Nc1ccc(-c2nc3ccccc3s2)c(Cl)c1`, the GI50 was 2.42 µM and the TGI worked out at 8.23 µM.

The test system of the next experiment is SK-MEL-5 melanoma. Nature of the experiment: growth of human tumour cells (NCI), 48 h.
In turn, `CSc1nc(NC2OCC(OC(C)=O)C(OC(C)=O)C2OC(C)=O)c(N=CC=Nc2c(NC3OCC(OC(C)=O)C(OC(C)=O)C3OC(C)=O)nc(SC)[nH]c2=O)c(=O)[nH]1` (stereo not drawn) came in with a TGI of over 100 µM.
Same read-out and setting: the result for `CCCCCCN(CCCCCC)C(=O)Cc1c2n(c3ccccc13)Cc1ccccc1-2` reads over 100 µM; that for `Brc1ccccc1C1SCc2nc3ccccc3n21` (stereo not drawn), 18.7 µM; that for `CC1=CC(O)(c2ccc(-c3ccccc3Cl)cc2)OC1=O` (stereo not drawn), over 100 µM.
Turning to `O=S1(=O)OCCOS(=O)(=O)C1Br`, the TGI is over 100 µM.
Take `Nc1ncnc2n[nH]c(Nc3ccc(F)cc3)c12`: the GI50 was 19.6 µM and the TGI is over 100 µM.
`CCOC(=O)c1cc2nc3ccccc3c(=O)n2c2ccccc12` returned a TGI of over 10 µM.
Regarding `Cc1cc(O)c(/C=N/C(=S)NCc2ccccc2)c(=O)o1`, the TGI is over 100 µM.
As for `Cc1cc(I)cc(CN(C)CCCN2CCCCC2)c1O`, the GI50 was 8.5 µM and the TGI came out at 20.7 µM.
The like results for `COc1cccc(-c2nc(-c3ccc(NC(=O)C(C)C)cc3)[nH]c2-c2ccnc(Br)c2)c1` were, in that order, 1.8 µM and 3.32 µM.
With `O=C(CSc1ccc(Cl)cc1)Nc1ccc(-c2nc3ccccc3s2)c(Cl)c1`, the GI50 is 10.4 µM and the TGI was found to be 23 µM.

The next experiment has as its system SNB-78 CNS. Nature of the experiment: growth of human tumour cells (NCI), 48 h.
The molecule `CSc1nc(NC2OCC(OC(C)=O)C(OC(C)=O)C2OC(C)=O)c(N=CC=Nc2c(NC3OCC(OC(C)=O)C(OC(C)=O)C3OC(C)=O)nc(SC)[nH]c2=O)c(=O)[nH]1` (stereo not drawn) showed a TGI of over 100 µM.
Same read-out and setting: the result for `CCCCCCN(CCCCCC)C(=O)Cc1c2n(c3ccccc13)Cc1ccccc1-2` reads over 100 µM; that for `Brc1ccccc1C1SCc2nc3ccccc3n21` (stereo not drawn), 83.7 µM; that for `O=S1(=O)OCCOS(=O)(=O)C1Br`, over 100 µM.
